Measured values taken from patent publication US10548996B2, “Hydrogels for localized radiotherapy” (Washington University, priority 2014, dated 2020).

Key:
[1] = Release of radioactivity from implanted solid chitosan hydrogels to adjacent normal tissues (radiographic imaging); format: in vivo; settings: FIG. 4; rats, non-encapsulated, loaded in solid chitosan hydrogel implant; Day-1 to Day-7
[2] = In vitro release of fluorescence from chitosan hydrogels to the surrounding media; format: physicochemical; settings: FIG. 5, all time points tested, up to two weeks
Experimental: To determine the release of large molecules from the hydrogels, the following experiment was conducted. The chitosan hydrogels with the best injectability properties were analyzed naïve or loaded with the alginate microparticles with the best encapsulation efficiency. The in vitro release studies were developed by using a large-size molecule such as albumin and a small-size molecule as cresyl violet to detect the efficacy in both encapsulation settings. Albumin is not detectable by fluorescence reader or spectrophotometer, thus FITC was labeled to albumin. […] Different time points were measured to analyze short and long-term release. At 0, 1, 2, 4, 8, and 24 h, for short-term release, and 0, 0.33, 1, 2, 3, 7, 14, 21, 28, 42 days for long-term release, samples from the PBS solution that surrounded the chitosan hydrogels were analyzed by fluorescence reader (Alb-FITC and FITC) at 485/516 nm or spectrophotometer (CV) at 595 nm. The % release was calculated as follows: % Release=(Chitosan hydrogel−Blank)/(Control−Blank)*100
To assess these concepts, the release of fluorescence to the surrounding media was tested from chitosan hydrogels containing free-fluorescein, fluorescien-conjugated to bovine serum albumin (FITC-Alb), and FITC-Alb encapsulated in calcium-alginate microparticles.

Compound | radioactive leakage from the implant to adjacent normal tissues [1] | relative release of fluorescence to the surrounding media [2]
CC(C)CCCC(C)C1CCC2C3CC(C[131I])C4=C(CCC(O)C4)C3CCC12C (centres unmarked) [^131I-nor-cholesterol] | radioactive leakage from the implant starting at Day-1 that becomes more evident at Day-7 | –
FITC-Alb: fluorescien-conjugated to bovine serum albumin, in chitosan hydrogel | – | less than half of the relative release of fluorescein
